# Source: US20190284129A1, “LIPID COMPOUNDS AND COMPOSITIONS AND THEIR OPTHALMIC USE” (BIOZEP AS, priority 2015, published 2019)
# pEC50: −log10 of the molar value.
# How the values were obtained:
# [1] = target: T1, human PPARgamma (Homo sapiens, UniProt P37231); test: cellular GAL4 reporter gene assay, agonist mode, PPARgamma; type: cell-based
# T1 construct: expressed in transfected cells; host or cells: HEK293 (DSMZ ACC 305)
# T1 sequence (P37231 238-503 limits assumed): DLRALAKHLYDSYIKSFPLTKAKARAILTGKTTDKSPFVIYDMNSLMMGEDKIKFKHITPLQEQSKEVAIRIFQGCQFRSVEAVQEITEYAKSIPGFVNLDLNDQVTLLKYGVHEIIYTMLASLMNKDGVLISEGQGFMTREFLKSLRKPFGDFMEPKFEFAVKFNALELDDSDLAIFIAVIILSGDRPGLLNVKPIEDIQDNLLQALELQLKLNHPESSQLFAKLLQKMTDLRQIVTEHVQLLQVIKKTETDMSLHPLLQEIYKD
# Source text: The assays were done in HEK293 cells (DSMZ ACC 305). The plasmids used in the GAL4 assay system were derivatives of Stratagene's […] plasmids: the reporter plasmid pFR-Luc (containing a synthetic promoter with five tandem repeats of the yeast GAL4 binding sites that control expression of the Photinus pyralis (American firefly) luciferase gene), and pCMV-BD (for fusions of nuclear receptor ligand binding domains to the DNA-binding domain of the yeast protein GAL4). In order to improve experimental accuracy, a second reporter-Renilla reniformis luciferase, driven by a constitutive promoter-was included as an internal control. Using the control reporter (Renilla Luciferase) allowed corrections for variations in experimental handling, e.g. transfection efficacy, cell viability, pipetting errors, cell lysis efficiency and assay efficiency. […] The compounds BIZ-102 and BIZ-103 were tested at the human PPARbeta/delta and PPARgamma receptors using the same cellular GAL4 Reporter gene assays as in Example 6. The assays were run in agonist mode to detect agonistic activities of the tested compounds.
# [2] = tested on: ARPE-19 cells; test: oxidative stress (tert-butyl hydroperoxide) cytolysis assay in ARPE-19 retinal pigment epithelial cells; type: cell-based; conditions: for inhibition of the cytotoxicity induced by t-BHP: BIZ-102 10 μM
# Description: In order to evaluate the potential of BIZ-101 to protective the eye from oxidative stress damage the compound was tested in a cell based assay. Oxidative stress was induced in an ARPE-19 cell line using tert-butyl hydroperoxide at different concentrations. The cellular viability was kinetically monitored and measured by analysing the plasma membrane integrity based on the incorporation of a non-permeant and fluorescent DNA intercalating agent that selectively stain cytolytic cells with comprised plasma membranes.
# (§1) The ARPE-19 cell line was seeded and cultured in DMEM-F12 medium+10% SVF for 24 hrs in a 96 well plate. Cells were pre-treated or not with either fenofibric acid (25 μM) or compound BIZ-101 (10 μM) during this 24 hr period. After 24 hrs, the different concentrations of t-butyl hydroperoxide were added in the presence of a fluorescent DNA intercalating agent for the following monitoring. Live content time-lapse imaging was performed with a sampling rate of 1 image every 2 hr over a 96 hrs period. The number of fluorescent/cytolytic cells were counted and reported during the experiment. The treatment conditions were tested in one experiment session in a triplicate format.
# Fenofibric acid was used at 25 μM and was ordered from Sigma Aldrich. The day of the pre-treatment, a 25 mM stock solution of fenofibric acid was prepared in DMSO and diluted in the complete culture medium at 25 μM. 100 μL of this solution or 100 μL of complete culture medium+0.1% DMSO replaced the 100 μL of the complete culture medium already present in the well. The day of the treatment with t-butyl hydroperoxide, a 2 times concentrated solution of fenofibric acid was freshly diluted in the complete culture medium and 50 μL of this solution or 50 μL of complete culture medium+0.2% DMSO were added to the 100 μL of the culture medium already present in the well.
# Compound BIZ-101 was tested at a final concentration of 10 μM. A 10 mM predilution was prepared in DMSO from a 10 mM stock solution. The 10 mM solution of BIZ 101 was diluted in the complete culture medium at 10 μM. 100 μL, of this solution or 100 μL of the complete culture medium+0.1% DMSO replaced the 100 μL, of the complete culture medium already present in the well. The day of the treatment with t-butyl hydroperoxide, a 2 times concentrated solution of BIZ 101 was freshly diluted in the complete culture medium and 50 μL of this solution or 50 μL of complete culture medium+0.2% DMSO were added to the 100 μL of the culture medium already present in the well.
# Preparation of the tert-butyl hydroperoxide [tBHP] solution: 0, 0.01 mM, 0.03 mM, 0.1 mM, 0.3 mM, 1 mM, 3 mM and 10 mM. A 4 times concentrated solution of tBHP was freshly diluted in the complete culture medium for each of the concentrations to be tested. 50 μL of the 4 times concentrated solution was added to the 150 μL of the cultured medium.
# In order to evaluate the potential of BIZ-102 to protect the eye from oxidative stress damage the compound was tested in a cell based assay similar to Example 24 with the following changes. The oxidative stress in the ARPE-19 cell line was induced by using 3 different concentrations of tBHP: 10 μM, 30 μM and 100 μM and BIZ-102 was tested in 2 different concentrations: 1 μM and 10 μM.
# as §1, with “with” for “with either fenofibric acid (25 μM) or”, “BIZ-102 (1 μM and 10” for “BIZ-101 (10”
# Compound BIZ-102 was tested at a final concentration of 1 and 10 μM. […]
smiles,measurement,setting,value
"CCCCC/C=C\C/C=C\C/C=C\C/C=C\CCC(CC)C(=O)O (centres unmarked) [BIZ-102, (All-Z) 2-ethyl-5,8,11,14-eicosatetraenoic Acid]",pEC50,[1],5.82
same,PPARgamma efficacy vs. Rosiglitazone,[1],23%
same,inhibition of the cytotoxicity induced by t-BHP,"[2]; 10 μM t-BHP, FIG. 9A",significant inhibition
same,inhibition of the cytotoxicity induced by t-BHP,"[2]; 30 μM t-BHP, FIG. 9B",significant inhibition
same,effect on retinal pigment epithelial cells during conditions of oxidative stress,[2]; overall conclusion,protective effect
